Assay results: US8071103B2, “Pharmaceutical composition comprising a human GLP-1 mimetibody” (Centocor, Inc., priority 2006, dated 2011)
Values belong to the compound of their own block, whether it stands above or below them. Where no end group is shown, it is not given here.

Tests used:
db/db mice = test: Blood glucose after intravenous dosing in db/db mice; assay type: in vivo; conditions: 0.5-4 hours post-dosing
Method: Blood glucose was monitored 0.5, 1, 2, 3, and 4 hours post-dosing.

GLP-1 receptor [1] = molecular target: T1, GLP-1 receptor (Mus musculus, UniProt O35659); test: Glucose tolerance test (ipGTT) in GLP-1R−/− and wild type mice; assay type: in vivo; conditions: wild type mice, single iv, GLP-1 MMB 1 mg/kg, exendin-4 0.07 mg/kg
T1 construct: Male GLP-1R−/− and age matched wild type mice; from tissue; host or cells: whole animal (wild type mice; GLP-1R-/- mice as receptor-free control)
T1 sequence (O35659 22-463): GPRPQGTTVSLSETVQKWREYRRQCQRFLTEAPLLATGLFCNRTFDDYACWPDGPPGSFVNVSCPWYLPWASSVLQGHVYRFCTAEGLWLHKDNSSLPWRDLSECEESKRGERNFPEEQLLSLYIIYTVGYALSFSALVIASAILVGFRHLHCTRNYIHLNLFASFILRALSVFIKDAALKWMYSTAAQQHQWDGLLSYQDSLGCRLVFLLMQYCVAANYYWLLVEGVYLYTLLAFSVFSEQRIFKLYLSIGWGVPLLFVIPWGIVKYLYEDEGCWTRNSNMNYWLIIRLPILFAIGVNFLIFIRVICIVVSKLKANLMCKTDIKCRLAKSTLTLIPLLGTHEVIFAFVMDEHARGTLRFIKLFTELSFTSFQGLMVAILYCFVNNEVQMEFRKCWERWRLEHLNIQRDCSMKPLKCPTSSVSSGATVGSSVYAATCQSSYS
Method: (§1) Materials/Methods: Animals: Male GLP-1R−/− and age matched wild type mice were randomized into three treatment groups (n=5) based on body weight and fasting blood glucose.
Glucose tolerance test (ipGTT): Mice were fasted overnight and dosed intravenously as discussed above. Fasting glucose was measured via tail snips using a hand-held glucometer (LifeScan). At t=0 min, mice were dosed i.p. with D-glucose (1.0 mg/g, Sigma) and blood glucose was measured after 15, 30, 60, 90 and 120 min using tail vein blood

RINm cells = test: Insulin secretion in RINm cells; assay type: cell-based; conditions: peptides 0-5 nM, mimetibodies 5 or 50 nM, ELISA
Method: GLP-1 MMB causes insulin secretion in RINm cells. To test the effect of GLP-1 MMB in insulin secretion, RINm cells were treated with increasing concentrations of GLP-1 (7-36) peptide (0-5 nM), exendin-4 peptide (0-5 nM), or various GLP-1 mimetibodies (5 or 50 nM) and the amount of insulin secreted was measured via ELISA. All GLP-1 MMBs tested had activities in stimulating insulin secretion in RINm cells (FIG. 6).

GLP-1 receptor [2] = test: Food intake in GLP-1R−/− and wild type mice; assay type: in vivo; conditions: GLP-1R−/− mice, single iv, GLP-1 MMB 1 mg/kg, exendin-4 0.07 mg/kg
Excerpt: as §1

GLP-1 receptor [3] = molecular target: T1, GLP-1 receptor; test: Food intake in GLP-1R−/− and wild type mice; assay type: in vivo; conditions: wild type mice, single iv, GLP-1 MMB 1 mg/kg, exendin-4 0.07 mg/kg
Excerpt: as §1

GLP-1 receptor [4] = test: Gastric emptying in GLP-1R−/− and wild type mice; assay type: in vivo; conditions: GLP-1R−/− mice, single iv, GLP-1 MMB 1 mg/kg, exendin-4 0.07 mg/kg
Method: as §1
(§2) Gastric Emptying: Mice were fasted overnight. The next morning mice were re-fed for 1 h, food intake was recorded and the mice were deprived of food for the rest of the study. Mice were dosed intravenously as discussed above. Two hours post-dosing mice were euthenized.
(§3) The stomach was exposed by laparotomy, ligated at both the pylorus and cardia and removed.
(§4) The stomach content wet weight was measured. Equation 1 was used to calculate the percent of food remaining in the stomach. (Stomach Content Wet Weight (g)/Food Intake (g))*100 Equation (1)

GLP-1 receptor [5] = molecular target: T1, GLP-1 receptor; test: Gastric emptying in GLP-1R−/− and wild type mice; assay type: in vivo; conditions: wild type mice, single iv, GLP-1 MMB 1 mg/kg, exendin-4 0.07 mg/kg
Method: as §1, §2, §3, §4

normal dogs = test: Gastric emptying in normal dogs; assay type: in vivo, beagle dogs; conditions: relative to vehicle
Method: A gastric cannula was surgically implanted into female beagle dogs (10-15 kg) under general anesthesia and allowed to recover for at least 2 weeks. Dogs were fasted for 24 hours after which water was freely available. The gastric cannula was opened and gastric juice and food remnants were removed with 40-50 ml of lukewarm water. Groups of six dogs were dosed subcutaneously with lidamidine, an alpha2 agonist (0.63 mg/kg), 60 minutes before the meal, a positive control for delay of gastric emptying. […] Five minutes before the meal, the gastric cannula was opened to determine the amount of fluid present in stomach for baseline value and fluid was promptly reintroduced. Then a test meal consisting of 250 ml of a glucose solution (5 g/1) was administered via the cannula and allowed to remain in the stomach for 30 minutes. Gastric contents were drained from the stomach to measure total volume after 30 minutes. […] Glucose concentrations were evaluated for collected samples and used to determine the absolute amount of glucose remaining in the stomach at each time point. The percentage of glucose retained in the stomach was determined from the starting value and the concentration of glucose at each time point and plotted as a function of time. The time at which 50% of the gastric contents were retained was determined by fitting of the curves to a single exponential.

Compound: CC[C@H](C)[C@H](NC(=O)[C@H](Cc1ccccc1)NC(=O)[C@H](CCC(=O)O)NC(=O)[C@H](CCCCN)NC(=O)[C@H](C)NC(=O)[C@H](C)NC(=O)[C@H](CCC(N)=O)NC(=O)CNC(=O)[C@H](CCC(=O)O)NC(=O)[C@H](CC(C)C)NC(=O)[C@H](Cc1ccc(O)cc1)NC(=O)[C@H](CO)NC(=O)[C@H](CO)NC(=O)[C@@H](NC(=O)[C@H](CC(=O)O)NC(=O)[C@H](CO)NC(=O)[C@@H](NC(=O)[C@H](Cc1ccccc1)NC(=O)[C@@H](NC(=O)CNC(=O)[C@H](CCC(=O)O)NC(=O)[C@H](C)NC(=O)[C@@H](N)Cc1c[nH]cn1)[C@@H](C)O)[C@@H](C)O)C(C)C)C(=O)N[C@@H](C)C(=O)N[C@@H](Cc1c[nH]c2ccccc12)C(=O)N[C@@H](CC(C)C)C(=O)N[C@H](C(=O)N[C@@H](CCCCN)C(=O)NCC(=O)N[C@@H](CCCNC(=N)N)C(N)=O)C(C)C [GLP-1 peptide]
blood glucose (db/db mice): lowered blood glucose at 30 minutes

24 hour cumulative food intake compared to CNTO1996 (GLP-1 receptor [3]): statistically significant reduction
stomach content (percent of food remaining) 2 h after dosing compared to CNTO1996 (GLP-1 receptor [5]): statistically significant increase
Compound: exendin-4 [reference compound]
AUC of ipGTT (GLP-1 receptor [1]): statistically significant reduction
insulin secretion in RINm cells (RINm cells): stimulates insulin release
food intake (GLP-1 receptor [2]): no effect
gastric emptying (GLP-1 receptor [4]): no effect

Compound: CN=C(N)NC(=O)Nc1c(C)cccc1C [lidamidine]
gastric emptying (normal dogs): significant delay in gastric emptying

Compound: GLP-1 (7-36) peptide: wide-type GLP-1 (7-36) peptide (HAEGTFTSDVSSYLEGQAAKEFIAWLVKGR; ends and bridges not checked; UniProt P01275 98-127, looked up)
insulin secretion in RINm cells (RINm cells): stimulates insulin release
